Data from patent US20090143293A1, “Peptide inhibitors of protein kinase C gamma for pain management” (priority 2002, published 2009).
“Also recorded” adds a separate entry of the source. Read-outs that look alike come from different tables or passages of the source.

Assays:
[1] = tested on: allodynia and/or hyperalgesia; conditions: neuropathy model; cited from earlier work
[2] = tested on: allodynia and/or hyperalgesia; conditions: formalin model; cited from earlier work
[3] = tested on: capsaicin-induced nociception; assay: Capsaicin-induced nociception, paw withdrawal latency (Example 2); type: in vivo, rat (adult male Sprague-Dawley); conditions: 10 μM Tat-conjugated peptide intrathecal 15 min before 3% capsaicin, FIG. 3; for response to nociception (paw withdrawal latency): low rate heating
Protocol: Example 2 describes another study in support of the invention, where a γPKC V5 domain peptide (SEQ ID NO:4) was used for pain management in the capsaicin pain model. As a positive, comparative control, a V1 εPKC peptide (SEQ ID NO:6) was used. The peptides were conjugated to a Tat carrier peptide (SEQ ID NO:7) and were administered intrathecally to test animals prior to application of capsaicin to a paw. […] minutes after capsaicin application, paw withdrawal latency was measured at regular intervals for 75 minutes. The results are shown in FIG. 3, for Tat-derived γPCK (closed squares), Tat-derived-εPCK (open squares), the Tat carrier peptide alone (open triangles), and for animals treated with saline (open circles).
Adult male Sprague-Dawley rats weighing between 200-250 g were lightly anaesthetized with urethane (800 mg/kg, i.p.). The dorsal surface of each animal was painted with India ink to ensure heat was applied evenly to the dorsal surface. Baseline measurements of all animals (n=10/test group) were taken for 45 minutes for both C-fibers (0.9° C./sec heating rate) and Aδ-fibers (6.5° C./sec heating rate). The test V5 peptide was derived from the V5 region of γPKC (SEQ ID NO:4) and was conjugated to a Tat-carrier peptide (SEQ ID NO:7). As a positive comparative control, a peptide from the V1 domain of εPKC (SEQ ID NO:6) was also conjugated to a Tat-carrier peptide (SEQ ID NO:7). The peptides were delivered intrathecally via direct lumbar puncture (10 μM peptide in 20 μL saline) 15 minutes prior to topical application of capsaicin to the left hind paw (100 μL of 3% capsaicin). Saline and the Tat-carrier peptide alone (SEQ ID NO:7) were also administered to two separate groups of control animals. A latency measurement was taken post peptide but prior to capsaicin application to control for direct peptide effect. Twenty minutes after the application of capsaicin, the ink was re-applied, and the dorsal surface of the hind paws was subjected to low rate heating for a maximum of 20 seconds. Foot withdrawal latencies were measured at 15 minute intervals.

[4] = tested on: pain; conditions: reported in WO 00/01415; listed as εV1-2 peptide; cited from earlier work
[5] = tested on: formalin-induced spontaneous pain behaviors; assay: Formalin-induced nociception in rat pups, peptide given before formalin (Example 1); type: in vivo, rat (Sprague-Dawley pups)
Protocol: In the study detailed in Example 1, the peptide identified herein as SEQ ID NO:4 was administered to rat pups on postnatal days 7, 15, and 21. The peptide was administered 15 minutes prior to intraplantar formalin injection. Following formalin injection, spontaneous pain behaviors were recorded every two minutes for one hour. In this study, an εPKC antagonist peptide from the V1 domain was used as a positive, comparative control. As noted above, the εV1-2 peptide, EVASLKPT (SEQ ID NO:6) has been described, for example, in U.S. Pat. No. 5,783,405 and by Dorn et al. (PNAS, […]:12798 (1999)).
Both the εV1-2 peptide and the γPKC peptide V5-3 (SEQ ID NO:4) were conjugated via terminal cysteine residues to a carrier peptide, Tat (SEQ ID NO:7), for administration. One group of animals was treated with the Tat carrier peptide alone as a control. Another group of animals received only saline as a control.
The results are shown in FIGS. 2A-2C, where average pain scores for rat pups treated with γPKC (closed squares), εPCK (open squares), the Tat carrier peptide alone (open triangles), or saline (open circles) are shown as a function of time, in minutes. The average pain score was determined by a time sampling method, where the animal's behavior was recorded every two minutes. A score of “1” was given if the animal was licking, shaking, or elevating the formalin-treated paw. The three pain scores over a six minute period of observation were summed into a single score, to give a maximum possible score of 3 for each animal for each six minute interval. The average pain score was determined from the individual scores of the animals in each treatment group. FIG. 2A corresponds to the average pain scores for 7 day old rat pups, where 1% formalin was administered to the paw 15 minutes post delivery of the peptide or control substance.
Rat pups (male and female, Sprague-Dawley) were randomly divided at selected days after birth (postnatal days 7, 15, and 21) into groups for treatments. Each group received a PKC V5-domain test peptide, a positive, comparative control peptide, a carrier peptide control, or a saline control. The V5-domain test peptide was a γPKC peptide identified herein as SEQ ID NO:4 and as the comparative control peptide was a V1 domain εPKC peptide identified herein as SEQ ID NO:6. Peptides were reversibly conjugated to a Tat-peptide carrier (SEQ ID NO:7) via a cysteine-cysteine bond at their N termini. The peptides were administered via direct lumbar puncture (intrathecal administration) at the indicated dose, typically a dose of 20 μM PKC peptide in 5 μL (7 day old pups) or 10 μL (15 and 21 day old pups) saline.
Fifteen minutes after administration of the peptides or the control substance, 1% formalin (7 day old pups) or 2.5% formalin (15 and 21 day old pups) was delivered intradermally to the paw. Spontaneous pain behaviors were recorded every two minutes for one hour following formalin injection. The time sampling method for behavioral observation was employed, in which the observer rapidly recorded the behavior of the animals every two minutes (Teng et al., Pain, 76:337 (1998). A score of “1” was given if the animal was licking, shaking, or elevating the hindpaw. A six minute period of observation provided a maximum pain score of “3” for each animal.

[6] = molecular target: T1, εPKC (Homo sapiens, UniProt Q02156); conditions: reported in the literature; listed as εV1-2 peptide; cited from earlier work
T1 sequence (Q02156 1-737): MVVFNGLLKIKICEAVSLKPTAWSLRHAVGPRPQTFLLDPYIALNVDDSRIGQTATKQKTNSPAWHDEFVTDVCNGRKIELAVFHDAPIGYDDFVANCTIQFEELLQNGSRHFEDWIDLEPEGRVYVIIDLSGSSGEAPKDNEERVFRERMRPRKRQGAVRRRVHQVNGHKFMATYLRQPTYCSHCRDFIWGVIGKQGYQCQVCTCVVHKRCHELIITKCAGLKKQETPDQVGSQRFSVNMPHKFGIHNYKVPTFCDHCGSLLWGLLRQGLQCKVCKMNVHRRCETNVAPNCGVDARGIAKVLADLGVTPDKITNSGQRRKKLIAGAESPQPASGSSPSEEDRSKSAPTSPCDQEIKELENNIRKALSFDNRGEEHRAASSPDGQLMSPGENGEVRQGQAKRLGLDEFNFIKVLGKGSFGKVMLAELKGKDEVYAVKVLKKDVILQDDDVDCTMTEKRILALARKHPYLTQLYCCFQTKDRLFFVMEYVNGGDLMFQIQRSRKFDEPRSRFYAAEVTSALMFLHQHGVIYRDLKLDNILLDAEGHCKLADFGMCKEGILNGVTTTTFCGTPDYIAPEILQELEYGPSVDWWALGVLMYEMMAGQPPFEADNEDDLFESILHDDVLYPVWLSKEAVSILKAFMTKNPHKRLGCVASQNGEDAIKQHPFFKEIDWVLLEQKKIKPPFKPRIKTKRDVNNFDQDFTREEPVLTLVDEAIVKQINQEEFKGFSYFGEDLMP

[7] = tested on: formalin-induced spontaneous pain behaviors; assay: Dose response study in the formalin-induced pain model, rats at postnatal days 7, 15, 21; type: in vivo, rat
Description: In postnatal day 21 and older rats, intraplantar formalin produces a stereotypic biphasic behavioral pattern. Phase 1 is characterized by intense shaking, lifting and licking of the offending hindpaw produced by activation of peripheral nociceptors. Activation of descending inhibitory pathways follows, reducing spontaneous pain behaviors (quiescent phase). Quiescence is followed by a second phase, characterized by a revival of pain behaviors, and at least partially mediated by central mechanisms.
A dose response study on rats at postnatal days 7, 15, and 21 using the γPCK V5 peptide identified herein by SEQ ID NO:4. In this study, the average pain scores as a function of time were determined, as described above, using the formalin-induced pain model. The peptide was administered at dosages of 2 μM, 10 μM and 20 μM fifteen minutes […] formalin injection. The results are shown in FIGS. 4A-4C for rats at postnatal day 7 (FIG. 4A), postnatal day 15 (FIG. 4B) and postnatal day 21 (FIG. 4C), where the 2 μM γPKC dose is represented by inverted triangles, the 10 μM dose of γPKC is represented by diamonds, and the 20 μM γPKC dose by circles. The control groups received 10 μM of the Tat carrier peptide and are represented by triangles.

[8] = tested on: allodynia and/or hyperalgesia; conditions: capsaicin model; cited from earlier work
[9] = 7 day old rat pups, 1% formalin to paw 15 min after intrathecal Tat-conjugated peptide, FIG. 2A
[10] = 15 day old rat pups, 2.5% formalin 15 min after intrathecal Tat-conjugated peptide, FIG. 2B
[11] = 21 day old rat pups, 2.5% formalin 15 min after intrathecal Tat-conjugated peptide, FIG. 2C
[12] = 2, 10, 20 μM, postnatal days 7, 15, 21, FIGS. 4A-4C

calphostin
allodynia and/or hyperalgesia induced by the inflammatory agents [1]: reversal of the allodynia and/or hyperalgesia

COc1ccc2c(c[n+](C)c3c4cc5c(cc4ccc23)OCO5)c1OC [chelerythrine]
allodynia and/or hyperalgesia induced by the inflammatory agents [2]: reversal of the allodynia and/or hyperalgesia

EVASLKPT [SEQ ID NO:6, peptide derived from the V1 domain of εPKC, positive comparative control, reference compound]
reducing the paw withdrawal latency [3]: about 50% | response to nociception (paw withdrawal latency) [3]: anti-hyperalgesic | pain [4]: reported to lessen pain; also recorded: ameliorate pain | average pain score relative to control pups [5, 9]: provided a greater attenuation of formalin-induced nociception | average pain score relative to control pups [5, 10]: contribute to nociception relief | average pain score relative to control pups [5, 11]: contribute to nociception relief | selective inhibition of εPKC [6]: selective inhibitor of εPKC; also recorded: selectively inhibit PCKε action

RLVLAS (peptide derived from the V5 domain of the gamma isozyme of PKC) [SEQ ID NO:4, peptide derived from the V5 domain of the γ isozyme of PKC]
response to nociception (paw withdrawal latency) [3]: induced an analgesic effect, producing an increase of threshold in the initial time point | response to nociception (paw withdrawal latency) ([3]; listed as γPKC V5 domain peptide): effective to modulate the response to nociception | average pain score relative to control pups [5, 9]: effective to lessen pain | average pain score relative to control pups [5, 10]: effective to alleviate pain | average pain score relative to control pups [5, 11]: provided a reduction in pain | duration of formalin-induced pain ([5]; summary of FIGS. 2A-2C): effectively shortened the duration | formalin-induced spontaneous pain behaviors ([5]; summary of FIGS. 2A-2C, postnatal days 7, 15, 21): attenuated formalin-induced spontaneous pain behaviors | phase 1 of formalin-induced spontaneous pain behaviors [7, 12]: but not phase 1 | phase 2 of formalin-induced spontaneous pain behaviors [7, 12]: attenuated phase 2 | attenuation of phase 2 behaviors ([7]; 7 day old rats, highest dose (20 μM)): mild anti-nociception | duration of phase 2 behaviors ([7]; 15 day old rats): shortened the duration of phase 2 behaviors | duration of phase 2 behaviors ([7]; 21 day old rats): shortened the duration of phase 2 behaviors | attenuation of phase 2 behaviors ([7]; 21 day old rats, all three doses (2, 10, 20 μM)): more robust anti-nociception

CCCCCCCCCCCCC(=O)N1CCCCC1CNC(=O)C(N)CCCCN (centres unmarked) [NPC15437]
allodynia and/or hyperalgesia induced by the inflammatory agents [8]: reversal of the allodynia and/or hyperalgesia
